The text below walks through data of patent US9487540B2, “Compound for inhibiting the growth and proliferation of human liver cancer cells and method for synthesizing it” (priority 2015, dated 2016).

Data set [1] can be described thus: Cytotoxicity evaluation using viability assay (crystal violet colorimetric method). The class given is cell-based. To be noted: human, HepG2 cells; for viability at 48 h, 0.78 μg: HepG2, sample conc. 0.78 μg.
Assay in data set [2]: as above
The format is cell-based, human. To be noted: human, HepG2 cells, 48 hours; for viability at 48 h, 1.56 μg: HepG2, sample conc. 1.56 μg; for viability at 48 h, 3.125 μg: HepG2, sample conc. 3.125 μg; for viability at 48 h, 6.25 μg: HepG2, sample conc. 6.25 μg; for viability at 48 h, 12.5 μg: HepG2, sample conc. 12.5 μg; for viability at 48 h, 25 μg: HepG2, sample conc. 25 μg; for viability at 48 h, 50 μg: HepG2, sample conc. 50 μg. The source says:
(§1) HepG2 cells (human cell line of a well differentiated hepatocellular carcinoma isolated from a liver biopsy of a person) were obtained from the American Type Culture Collection (ATCC). The chemicals used were: Dimethyl sulfoxide (DMSO), crystal violet and trypan blue dye, purchased from Sigma, St. Louis, Mo., USA; DMEM, RPMI-1640, FBS, HEPES buffer solution, L-glutamine, gentamycin and 0.25% Trypsin-EDTA, purchased from BioWhittaker®, Lonza, Belgium; and Crystal violet stain (1%), composed of 0.5% (w/v) crystal violet and 50% methanol, made up to volume with ddH20 and filtered through a Whatmann No. I filter paper.
(§2) In the cytotoxicity assay, the cells were propagated in Dulbecco's modified Eagle's medium (DMEM) supplemented with 10% heat-inactivated fetal bovine serum, 1% L-glutamine, HEPES buffer and 50 μg/ml gentamycin. All cells were maintained at 37° C. in a humidified atmosphere with 5% CO2 and were subcultured two times a week.
(§3) Cell toxicity was monitored by determining the effect of the test samples on cell morphology and cell viability.
(§4) For cytotoxicity assay, the cells were seeded in a 96-well plate at a cell concentration of 1×10^4 cells per well in 100 μl of growth medium. Fresh medium containing different concentrations of the test sample was added after 24 hours following seeding. Serial two-fold dilutions of the tested chemical compound were added to confluent cell monolayers dispensed into 96-well, flat-bottomed microtiter plates (Falcon, N.J., USA) using a multichannel pipette. The microtiter plates were incubated at 37° C. in a humidified incubator with 5% CO2 for a period of 48 hours. Three wells were used for each concentration of the test sample. Control cells were incubated without test sample and with or without DMSO. The little percentage of DMSO present in the wells (maximal 0.1%) was found not to affect the experiment. After incubation of the cells for 24 hours at 37° C., various concentrations of sample (50, 25, 12.5, 6.25, 3.125 & 1.56 μg) were added, and the incubation was continued for 48 hours and viable cells yield was determined by a colorimetric method.
(§5) In brief, after the end of the incubation period, media were aspirated and the crystal violet solution (1%) was added to each well for at least 30 minutes. The stain was removed and the plates were rinsed using tap water until all excess stain was removed. Glacial acetic acid (30%) was then added to all wells and mixed thoroughly and then the absorbance of the plates was measured after being gently shaken on a Microplate reader (TECAN, Inc.), using a test wavelength of 490 nm. All results were corrected for background absorbance detected in wells without added stain. Treated samples were compared with the cell control in the absence of the tested compound. All experiments were carried out in triplicate.
(§6) The cell cytotoxic effect of tested compound was calculated according to the rapid colorimetric assay for cellular growth and survival: application to proliferation and cytotoxicity assay, published by T. Mosmann in the Journal of Immunology Methods, 1983, 65:55-63; and the antiviral activity of medicinal plants of Nilgriris, published by P. Vijayan et al. in the Indian Journal of Medical Research, 2004, 120: 24-29.

In data set [3] the test system is HepG2 (Hepatocellular carcinoma cells). The description is as above. The format is cell-based, human. To be noted: Homo sapiens, 48 hours incubation, read-out: inhibition concentration value (IC50).
Description: as §1, §2, §3, §4, §5, §6

Converted amounts (≈) assume the structure as drawn.

Compound `O=c1[nH]c(Nc2ccc([N+](=O)[O-])cc2)nc2sc3c(c12)CCCCC3` (hydrate or solvate) [Compound III, 2-((4-Nitrophenyl)amino)-6,7,8,9-tetrahydro-3H-cyclohepta[4,5]thieno[2,3-d]pyrimidin-4(5H)-one] registered a melting point of 298 °C.

As to `O=c1[nH]c(Nc2ccc([N+](=O)[O-])cc2)nc2sc3c(c12)CCCCC3` [Compound III, 2-((4-Nitrophenyl)amino)-6,7,8,9-tetrahydro-3H-cyclohepta[4,5]thieno[2,3-d]pyrimidin-4(5H)-one], the viability at 48 h, 0.39 μg in data set [1] (HepG2, sample conc. 0.39 μg) was 60.8%. In data set [1], this compound displayed a viability at 48 h, 0.78 μg of 47.1%. In data set [2], the viability at 48 h, 1.56 μg was found to be 36.9%; the viability at 48 h, 3.125 μg is 23.7%; the viability at 48 h, 6.25 μg is 18.5%; the viability at 48 h, 12.5 μg was determined as 14.4%. In addition, in data set [2], the viability at 48 h, 25 μg came out at 10.2% and the viability at 48 h, 50 μg came to 6.32%. In addition, the IC50 in data set [3] is 0.7 µg/mL (≈ 1.96 µM).

`COc1cccc2c1C(=O)c1c(O)c3c(c(O)c1C2=O)C[C@@](O)(C(=O)CO)C[C@@H]3O[C@H]1C[C@H](N)[C@H](O)[C@H](C)O1` [Doxorubicin, reference compound] yielded a viability at 48 h, 0.78 μg in data set [1] of 57.4%. Besides, in data set [2], the viability at 48 h, 1.56 μg was found to be 48.2%; the viability at 48 h, 3.125 μg amounted to 30.3%; the viability at 48 h, 6.25 μg worked out at 21%; the viability at 48 h, 12.5 μg worked out at 16.9%. Also, in data set [2], the viability at 48 h, 25 μg came to 14.3% and the viability at 48 h, 50 μg stood at 10.9%.
